This is an account of results in patent publication US20070277254A1, “Method for Increasing Ploidy in a Plant” (priority 2003, published 2007).

In series [1] the test system is apical buds of budded plants. The series can be described thus: Ploidy increase in buds treated with colchicine, stomata on leaves counted per unit area and compared to the parent. The class given is in vivo. The settings on record: twice daily for five days minimum. As for the experimental part: Firstly, the plants are budded (on a selected root stock), then they are held in a dormant state and the appropriate chill requirement is given in a cool room (if required). The plants are then removed to a warm environment to prime the bud (which is still dormant). This is continued up to the point at which dormancy is “broken”, cell division is commenced. The bud is then wrapped in absorbent substance, the absorbent material is injected with a 1% aqueous solution of the colchicine drug. Note that this is 10× higher concentration than normal treatments. A plastic surround is used to enclose the bud, to keep it moist but exposed to the drug. This treatment is repeated twice daily for five days minimum.
In a next step, to determine whether a ploidy increase has resulted, the stomata on leaves are counted per unit area and compared to the parent. Unexpectedly, it is observed that between 10-20% of the apical buds have their ploidy level increased as a result of this process (compared with only approx 1% in normal techniques). Thus, for example, in citrus, plant leaves become shorter, thicker, wider and oil glands become more prominent.

Series [2] has as its system apical buds of budded plants. The following applies: normal techniques (comparison; about 10x lower colchicine concentration); cited from earlier work.

Read-outs that look alike come from different tables or passages of the source.

`COc1cc2c(c(OC)c1OC)-c1ccc(OC)c(=O)cc1[C@@H](NC(C)=O)CC2` [colchicine]: the “apical buds having their ploidy level increased” value is listed as 10-20% in series [1] (1% aqueous solution of colchicine injected into absorbent wrap around bud at break of dormancy) and “approx 1%” in series [2]. Moreover, the “effect on original growing point (main bud)” value in series [1] (1% aqueous solution of colchicine) is “generally killed”.
